Experimental data from patent US4572916A, “Tablets” (priority 1979, dated 1986).
≈ marks a conversion by molar mass, not a printed value. Entries after “also recorded” stand apart in the source; their conditions may differ. Values belong to the molecule of their own block, whether it stands above or below them.

Experiments:
[1] = Tablet formation, integrity and fines during tabletting and handling; type: physicochemical
From the text: 50 g isomaltulose, 4 g gum arabic, 1 g magnesium stearate and 13 g saccharin were dry mixed, giving a flowable tabletting powder. Tablets were formed by direct compression of the powder. […]

[2] = Flowability: flow of 100 g tablet mix through a 3/8 inch orifice funnel; type: physicochemical; conditions: for Time for 100 g of the tablet mix to flow through the 3/8 inch orifice funnel: no vibration, "No flow" = unable to flow completely without agitation
[3] = Tablets made using a 1/4 inch flat face punch; type: physicochemical; conditions: Example 6, aspirin tablets; for Tablet making results: 1/4 inch flat face punch
Description: (a) The aspirin was mixed with the carrier under test, taking care to avoid moisture pick-up. The flavour was added to the starch with thorough mixing. The magnesium stearate was then added to the starch and this combination blended, with agitation, with the aspirin-carrier mix. (c) Tablets were made using a 1/4 inch flat face punch with the following results: […]

[4] = Solubility in water of isomaltulose; type: physicochemical
[5] = Viscosity of isomaltulose solution in water; type: physicochemical; conditions: H2O
[6] = Acid hydrolysis of isomaltulose; type: physicochemical; conditions: 90 h at 58° C. in 2M HCl
[7] = Reducing power of isomaltulose relative to glucose; type: physicochemical
[8] = Equilibrium relative humidity / water content of isomaltulose; type: physicochemical; conditions: 80% and 22° C.
[9] = Sweetness and taste of isomaltulose
Tablet weight = type: physicochemical; conditions: Example 6, aspirin tablets
From the text: (d) The tablet weights were:

[10] = Tablet hardness: % weight loss on vibration in a container for 1 hour; type: physicochemical
Description: (e) Tablet hardness was then assessed. For an objective test, the tablets were vibrated in a container for 1 hour.

[11] = Tablets made using a 1/4 inch flat face punch; type: physicochemical; conditions: Example 7, ascorbic acid tablets, in words
[12] = system: enzyme complex in the human intestine; conditions: literature clinical / in vitro studies (Holzen); cited from earlier work

Compound: OC[C@H]1O[C@@](CO)(O[C@H]2O[C@H](CO)[C@@H](O)[C@H](O)[C@H]2O)[C@@H](O)[C@@H]1O [Sucrose]
- Flowability, 100 g through 3/8" orifice, no agitation ([2]; Example 7, ascorbic acid mix): Agitation required

Compound: OC[C@H]1OC(O)[C@H](O)[C@@H](O)[C@@H]1O (stereo partly shown) [Anhydrous dextrose, reference compound]
- Time for 100 g of the tablet mix to flow through the 3/8 inch orifice funnel ([2]; Example 6, aspirin mix): No flow
- Tablet making results [3]: As (iv)

Compound: O=C[C@H](O)[C@@H](O)[C@H](O)[C@H](O)CO [Dextrose]
- Flowability, 100 g through 3/8" orifice, no agitation ([2]; Example 7, ascorbic acid mix): Agitation required

Continued, in another order:

- tablet quality / tablet formation ([1]; Example 4(i), direct compression with gum arabic, saccharin tablets): not possible to produce coherent tablets
- tablet formation ([1]; Example 4(ii), direct compression without binder, saccharin tablets): Tablets could not be made
- Time for 100 g of the tablet mix to flow through the 3/8 inch orifice funnel ([2]; Example 6, aspirin mix): No flow
- Flowability, 100 g through 3/8" orifice, no agitation ([2]; Example 7, ascorbic acid mix): Agitation required
- Tablet making results [3]: Tablet machine prone to sticking
Compound: OC[C@H]1O[C@@H](O[C@H]2[C@H](O)[C@@H](O)C(O)O[C@@H]2CO)[C@H](O)[C@@H](O)[C@H]1O (stereo partly shown) [Lactose, reference compound]

- solubility in water compared with lactose ([4]; in words, versus lactose): better solubility in water than lactose
- solubility ([4]; water, 30° C., H2O, read-out: solubility at 30° C., H2 O): 460 mg/mL (≈ 1340 mM)
- viscosity at 25° C., 50% w/v, H2 O [5]: 6 cp
- degraded at 90 h [6]: 40%
- reducing power [7]: 58-62 % of that of glucose
- water content at 80% equilibrium relative humidity and 22 °C [8]: 25-32 % water
- binding power when formed into tablets ([1]; in words): unusually good binding power
- Time for 100 g of the tablet mix to flow through the 3/8 inch orifice funnel ([2]; Example 6, aspirin mix): 38 s
- Flowability, 100 g through 3/8" orifice, no agitation ([2]; Example 7, ascorbic acid mix): 43 s
- flowability ([2]; Example 7, ascorbic acid mix, in words): performed well on flowability
- tablet weights (Tablet weight): 151 mg
- % weight loss on vibration (tablet hardness) ([10]; Example 6, aspirin tablets, vibrated 1 hour): 3.2%
- Weight loss on vibration for 1 hour ([10]; Example 7, ascorbic acid tablets): 1.8%
- dental plaque formation (Streptococcus mutans): little if any dental plaque is formed
Compound: OC[C@H]1O[C@H](OC[C@H]2OC(O)(CO)[C@@H](O)[C@@H]2O)[C@H](O)[C@@H](O)[C@@H]1O (stereo partly drawn) [Isomaltulose, 6-O-(αglucopyranosyl)-D-fructofuranose]
- taste ([9]; in words): pleasant, not very sweet, reasonably bland taste
- sweetness (relative to sucrose sweetness at 7% w/v in water) ([9]; relative to sucrose, 7% w/v in water): 0.37
- fines during handling ([1]; tablets with isomaltulose as diluent versus comparable lactose tablets): often show less tendency to generate fines during handling
- flowability, comparison of carriers ([2]; Example 6, aspirin mix, in words): comparable with the specially prepared products Dipac and Emdex, and better than the lactose, icing sugar or anydrous dextrose
- Tablet making results [3]: Tablets successfully made; also recorded: Released from die easily; also recorded: Good shiny appearance; also recorded: Good integrity
- tablet making, comparison of carriers ([3]; in words): comparable with the Dipac and Emdex, and superior to the other carriers
- tablet hardness ([10]; Example 7, ascorbic acid tablets, in words): not so well on tablet hardness; also recorded: not as hard as with the specially formulated carriers
- metabolism by Streptococcus mutans (Streptococcus mutans; preliminary studies): metabolized by Streptococcus mutans
- tablet quality [11]: shiny, hard and had good appearance; also recorded: clearly superior to the dextrose, lactose and sucrose
- fate of the constituent monosaccharides (fructose and glucose) [12]: adsorbed, metabolized and otherwise behave as fructose and glucose derived from sucrose
- hydrolysis by an enzyme complex in the human intestine [12]: readily hydrolyzed
